From patent US9115169B2, “Method of treating tumors” (Lytix Biopharma AS, priority 2000, dated 2015)
Values after ≈ are worked out from the molar mass of the structure shown. Values joined by “and” are separate entries in the source; they are usually repeats but may differ in a detail not shown here. Equal entries are not always repeated. Where two headings read alike, the source gives them in different places. *1 amine or outer side, *2 acyl side, *3 side chain or, on linkers, in order; H or OH if unused. Where a SMILES comes first, the peptide text is derived from it. Where no end group is shown, it is not given here. [ ]: non-standard residue; d: D form. The star is where a group is joined. Ethylenediamine = C(CN[*:2])N[*:1]; Cbz = O=C(OCc1ccccc1)*; OBn = c1ccc(CO*)cc1

Columns and labels:
MRSE ATCC 27626 = details: ATCC 27626
[1] = system: Staphylococcus aureus ATCC 25923
MRSA ATCC 33591 = details: ATCC 33591
[2] = system: Escherichia coli ATCC 25922
[3] = system: Escherichia coli ATCC 25922; remark: listed apart in the source
[4] = system: Staphylococcus aureus ATCC 25923; remark: listed apart in the source
[5] = Table 1, peptide amides, value outside brackets

MIC S. aureus ([1]; ATCC 25923)	MIC E. coli ([2]; ATCC 25922)	Compound	MBC E. coli ([3]; ATCC 25922)	MBC S. aureus ([4]; ATCC 25923)	further results
–	–	C[C@H](N)C(=O)N[C@@H](CCCNC(=N)N)C(=O)OCc1ccc(-c2ccccc2)cc1 [AROBip]	–	–	Minimum inhibitory concentration MRSE (MRSE ATCC 27626): 25 µg/mL (≈ 60.8 µM); Minimum inhibitory concentration S. aureus ([1]; ATCC 25923): 100 µg/mL (≈ 243 µM); Minimum inhibitory concentration MRSA (MRSA ATCC 33591): 37.5 µg/mL (≈ 91.1 µM); Minimum inhibitory concentration E. coli ([2]; ATCC 25922): 300 µg/mL (≈ 729 µM)
–	–	N=C(N)NCCC[C@H](NC(=O)[C@@H](N)Cc1ccc(-c2ccccc2)cc1)C(=O)OCc1ccc(-c2ccccc2)cc1 [BipROBip]	–	–	Minimum inhibitory concentration MRSE (MRSE ATCC 27626): 5.0 µg/mL (≈ 8.87 µM); Minimum inhibitory concentration S. aureus ([1]; ATCC 25923): 5.0 µg/mL (≈ 8.87 µM); Minimum inhibitory concentration MRSA (MRSA ATCC 33591): 5.0 µg/mL (≈ 8.87 µM); Minimum inhibitory concentration E. coli ([2]; ATCC 25922): 50 µg/mL (≈ 88.7 µM)
75 (75) μg/ml	200 (>200) μg/ml	N=C(N)NCCC[C@H](NC(=O)C1CCCCC1)C(=O)N[C@@H](Cc1c[nH]c2ccccc12)C(=O)OCc1ccccc1 [Chx RW OBz, Chx-Arg-Trp-OBzl]	200 (>200) μg/ml	75 (75) μg/ml	–
>200 (>200) μg/ml	>200 (>200) μg/ml	COC(=O)[C@H](CCCNC(=N)N)NC(=O)[C@H](Cc1c[nH]c2ccccc12)NC(=O)C1CCCCC1 [Chx WR OMe, Chx-Trp-Arg-OMe]	>200 (>200) μg/ml	>200 (>200) μg/ml	–
–	–	N=C(N)NCCC[C@H](NC(=O)[C@@H](N)Cc1ccccc1)C(=O)OCc1ccc(-c2ccccc2)cc1 [FROBip]	–	–	Minimum inhibitory concentration MRSE (MRSE ATCC 27626): 5 µg/mL (≈ 10.3 µM); Minimum inhibitory concentration S. aureus ([1]; ATCC 25923): 12.5 µg/mL (≈ 25.6 µM); Minimum inhibitory concentration MRSA (MRSA ATCC 33591): 12.5 µg/mL (≈ 25.6 µM); Minimum inhibitory concentration E. coli ([2]; ATCC 25922): 100 µg/mL (≈ 205 µM)
75 (75) μg/ml	>200 (>200) μg/ml	N=C(N)NCCC[C@H](NC(=O)Cc1c[nH]c2ccccc12)C(=O)N[C@@H](Cc1c[nH]c2ccccc12)C(=O)NCCNC(=O)OCc1ccccc1 [Ind RW DaeZ, Ind-Arg-Trp-Dae-Z]	>200 (>200) μg/ml	75 (75) μg/ml	–
20 (20) μg/ml	>200 (>200) μg/ml	N=C(N)NCCC[C@H](NC(=O)Cc1c[nH]c2ccccc12)C(=O)N[C@@H](Cc1c[nH]c2ccccc12)C(=O)OCc1ccccc1 [Ind RW OBz, Ind-Arg-Trp-OBzl]	>200 (>200) μg/ml	20 (20) μg/ml	–
>200 (>200) μg/ml	>200 (>200) μg/ml	COC(=O)[C@H](CCCNC(=N)N)NC(=O)[C@H](Cc1c[nH]c2ccccc12)NC(=O)Cc1c[nH]c2ccccc12 [Ind WR OMe, Ind-Trp-Arg-OMe]	>200 (>200) μg/ml	>200 (>200) μg/ml	–
300 µg/mL (≈ 782 µM)	>300 µg/mL	NCCCC[C@H](N)C(=O)N[C@@H](Cc1ccccc1)C(=O)OCc1ccccc1 [KF-Obzl]	–	–	MIC MRSE (MRSE ATCC 27626): 150 µg/mL (≈ 391 µM); MIC MRSA (MRSA ATCC 33591): 300 µg/mL (≈ 782 µM)
–	–	N=C(N)NCCC[C@H](NC(=O)[C@H](CCCNC(=N)N)NC(=O)[C@@H](N)CCCNC(=N)N)C(=O)N[C@@H](Cc1c[nH]c2ccccc12)C(=O)N[C@@H](Cc1c[nH]c2ccccc12)C(=O)N[C@@H](Cc1c[nH]c2ccccc12)C(N)=O [RRRWWW] (H-RRRWWW-NH2)	20 µg/mL (≈ 19.2 µM)	–	–
50 µg/mL (≈ 93.2 µM)	>200 (>200) μg/ml	N=C(N)NCCC[C@H](N)C(=O)N[C@@H](Cc1c[nH]c2ccccc12)C(=O)NCCNC(=O)OCc1ccccc1 [RW DaeZ, H-Arg-Trp-Dae-Z] (H-Arg-Trp-{Ethylenediamine-Cbz})	>200 (>200) μg/ml	75 µg/mL (≈ 140 µM)	–
–	100 µg/mL (≈ 126 µM)	N=C(N)NCCC[C@H](NC(=O)[C@H](Cc1c[nH]c2ccccc12)NC(=O)[C@@H](N)CCCNC(=N)N)C(=O)N[C@@H](Cc1c[nH]c2ccccc12)C(=O)OCc1ccccc1 [RWRW-OBzl] (H-RWRW-OBn)	–	–	MIC MRSE (MRSE ATCC 27626): 2.5 µg/mL (≈ 3.15 µM)
–	–	N=C(N)NCCC[C@H](NC(=O)[C@H](Cc1c[nH]c2ccccc12)NC(=O)[C@H](CCCNC(=N)N)NC(=O)[C@H](Cc1c[nH]c2ccccc12)NC(=O)[C@@H](N)CCCNC(=N)N)C(=O)N[C@@H](Cc1c[nH]c2ccccc12)C(N)=O [RWRWRW] (H-RWRWRW-NH2)	20 µg/mL (≈ 19.2 µM)	10 µg/mL (≈ 9.58 µM)	–
20 µg/mL (≈ 23.3 µM)	–	N=C(N)NCCC[C@H](NC(=O)[C@H](Cc1c[nH]c2ccccc12)NC(=O)[C@H](CCCNC(=N)N)NC(=O)[C@H](Cc1c[nH]c2ccccc12)NC(=O)[C@@H](N)CCCNC(=N)N)C(N)=O [RWRWR] (H-RWRWR-NH2)	100 µg/mL (≈ 117 µM)	20 µg/mL (≈ 23.3 µM)	–
>100 µg/mL	>100 µg/mL	N=C(N)NCCC[C@H](NC(=O)[C@H](Cc1c[nH]c2ccccc12)NC(=O)[C@@H](N)CCCNC(=N)N)C(N)=O [RWR] (H-Arg-Trp-Arg-NH2; N-terminus assumed)	>100 µg/mL	>100 µg/mL	–
10 µg/mL (≈ 14.2 µM)	>100 µg/mL	N=C(N)NCCC[C@H](NC(=O)[C@H](Cc1c[nH]c2ccccc12)NC(=O)[C@H](Cc1c[nH]c2ccccc12)NC(=O)[C@@H](N)CCCNC(=N)N)C(N)=O [RWWR] (H-RWWR-NH2; N-terminus assumed)	>100 µg/mL	>100 µg/mL	–
7.5 µg/mL (≈ 7.18 µM)	10 µg/mL (≈ 9.58 µM)	N=C(N)NCCC[C@H](NC(=O)[C@H](CCCNC(=N)N)NC(=O)[C@H](Cc1c[nH]c2ccccc12)NC(=O)[C@H](Cc1c[nH]c2ccccc12)NC(=O)[C@H](Cc1c[nH]c2ccccc12)NC(=O)[C@@H](N)CCCNC(=N)N)C(N)=O [RWWWRR] (H-RWWWRR-NH2)	15 µg/mL (≈ 14.4 µM)	10 µg/mL (≈ 9.58 µM)	–
5 µg/mL (≈ 6.31 µM)	–	N=C(N)NCCC[C@H](N)C(=O)N[C@@H](Cc1c[nH]c2ccccc12)C(=O)N[C@H](CCCNC(=N)N)C(=O)N[C@H](Cc1c[nH]c2ccccc12)C(=O)OCc1ccccc1 [RWrw-OBzl] (H-RW[dR][dW]-OBn)	–	–	MIC MRSE (MRSE ATCC 27626): 2.5 µg/mL (≈ 3.15 µM)
75 to 100 µg/mL	>100 µg/mL	N=C(N)NCCC[C@H](NC(=O)[C@H](CCCNC(=N)N)NC(=O)[C@@H](N)Cc1c[nH]c2ccccc12)C(=O)N[C@@H](Cc1c[nH]c2ccccc12)C(N)=O [WRRW] (H-WRRW-NH2; N-terminus assumed)	>100 µg/mL	>100 µg/mL	–
–	–	N=C(N)NCCC[C@H](NC(=O)[C@H](Cc1c[nH]c2ccccc12)NC(=O)[C@H](CCCNC(=N)N)NC(=O)[C@@H](N)Cc1c[nH]c2ccccc12)C(=O)N[C@@H](Cc1c[nH]c2ccccc12)C(N)=O [WRWRW] (H-WRWRW-NH2)	50 µg/mL (≈ 56.3 µM)	20 (20) μg/ml	–
–	–	N=C(N)NCCC[C@H](NC(=O)[C@H](Cc1c[nH]c2ccccc12)NC(=O)[C@H](CCCNC(=N)N)NC(=O)[C@@H](N)Cc1c[nH]c2ccccc12)C(N)=O [WRWR] (H-WRWR-NH2; N-terminus assumed)	–	–	MIC S. aureus [1, 5]: 100 µg/mL (≈ 142 µM); MBC E. coli ([3]; Table 1, peptide amides): >100 µg/mL; MIC E. coli [2, 5]: >100 µg/mL; MBC S. aureus [4, 5]: >100 µg/mL
75 µg/mL (≈ 137 µM)	>100 µg/mL	N=C(N)NCCC[C@H](NC(=O)[C@@H](N)Cc1c[nH]c2ccccc12)C(=O)N[C@@H](Cc1c[nH]c2ccccc12)C(N)=O [WRW] (H-Trp-Arg-Trp-NH2; N-terminus assumed)	>100 µg/mL	100 µg/mL (≈ 183 µM)	–
–	20 (20) μg/ml	N=C(N)NCCC[C@H](NC(=O)[C@H](CCCNC(=N)N)NC(=O)[C@H](CCCNC(=N)N)NC(=O)[C@H](Cc1c[nH]c2ccccc12)NC(=O)[C@@H](N)Cc1c[nH]c2ccccc12)C(=O)N[C@@H](Cc1c[nH]c2ccccc12)C(N)=O [WWRRRW] (H-WWRRRW-NH2)	20 µg/mL (≈ 19.2 µM)	–	–
–	>200 µg/mL	N=C(N)NCCC[C@@H](N)C(=O)N[C@H](Cc1c[nH]c2ccccc12)C(=O)OCc1ccccc1 [rw-OBzl] (H-[dR]-[dW]-OBn)	–	–	MIC MRSE (MRSE ATCC 27626): 20 µg/mL (≈ 44.4 µM)
20 µg/mL (≈ 31.4 µM)	–	N=C(N)NCCC[C@H](NC(=O)[C@H](N)Cc1c[nH]c2ccccc12)C(=O)N[C@@H](Cc1c[nH]c2ccccc12)C(=O)OCc1ccccc1 [wRW-OBzl] (H-[dW]-Arg-Trp-OBn)	–	–	MIC MRSE (MRSE ATCC 27626): 10 µg/mL (≈ 15.7 µM)
–	–	N=C(N)NCCC[C@@H](NC(=O)[C@H](N)Cc1c[nH]c2ccccc12)C(=O)N[C@H](Cc1c[nH]c2ccccc12)C(=O)OCc1ccccc1 [wrw-OBzl] (H-[dW]-[dR]-[dW]-OBn)	–	–	MIC MRSE (MRSE ATCC 27626): 5 µg/mL (≈ 7.85 µM)
–	–	AWRWRA-NH2 Pmc+: hexapeptide amide having the Pmc group (also: Pmc group, position not given here)	–	–	MIC S. aureus ([1]; Table 8, first column): 2.5 µg/mL; MIC S. aureus ([1]; Table 8, second column): 2.3 μM/ml; MIC E. coli ([2]; Table 8, first column): 20 µg/mL; MIC E. coli ([2]; Table 8, second column): 18.0 μM/ml
–	–	RRAAWW-NH2 Pmc+: hexapeptide amide having the Pmc group; label printed twice, second probably RRAAWB (also: Pmc group, position not given here)	–	–	MIC S. aureus ([1]; Table 8, first column): 2.5 µg/mL; MIC S. aureus ([1]; Table 8, second column): 2.2 μM/ml and 2.3 μM/ml; MIC E. coli ([2]; Table 8, first column): 20 µg/mL; MIC E. coli ([2]; Table 8, second column): 17.4 μM/ml and 18.0 μM/ml
–	–	WRAAWR-NH2 Pmc+: hexapeptide amide having the Pmc group (also: Pmc group, position not given here)	–	–	MIC S. aureus ([1]; Table 8, first column): 2.5 µg/mL; MIC S. aureus ([1]; Table 8, second column): 2.3 μM/ml; MIC E. coli ([2]; Table 8, first column): 50 µg/mL; MIC E. coli ([2]; Table 8, second column): 45.0 μM/ml
–	–	WWAARR-NH2 Pmc+: hexapeptide amide having the Pmc group (also: Pmc group, position not given here)	–	–	MIC S. aureus ([1]; Table 8, first column): 5 µg/mL; MIC S. aureus ([1]; Table 8, second column): 4.5 μM/ml; MIC E. coli ([2]; Table 8, first column): 50 µg/mL; MIC E. coli ([2]; Table 8, second column): 45.0 μM/ml
